Numbered stars: 1 amine (or outer) side, 2 acyl side, 3 side chain; on linkers, the order of the positions; unused ones are H or OH. Bridge positions count the residues as written; N and C are the ends. Square brackets hold non-standard residues; d marks the D form. Peptide text beside a SMILES is read from it. * marks the point of attachment. ξ: configuration not given here. Bip = N[C@@H](Cc1ccc(-c2ccccc2)cc1)C(=O)O; X19 = O=C([C@@H]1CC(O)CN1[*:1])[*:2]; hArg = N=C(N)NCCCC[C@H](N)C(=O)O; 3Thi = N[C@@H](Cc1ccsc1)C(=O)O; Cha = N[C@@H](CC1CCCCC1)C(=O)O; Ile(3ξ) = CCC(C)[C@H](N)C(=O)O; Thr(3ξ) = CC(O)[C@H](N)C(=O)O; Carboxymethyl = O=C(O)C*; Orn = NCCC[C@H](N)C(=O)O; Aun = NCCCCCCCCCCC(=O)O; Dab = NCC[C@H](N)C(=O)O; Dap = NC[C@H](N)C(=O)O; AEEA = NCCOCCOCC(=O)O

From patent publication US20260022142A1, “MACROCYCLIC IMMUNOMODULATORS” (Bristol-Myers Squibb Company, priority 2022, published 2026) come the findings set out here.

In the assay the target is T1, PD-1/PD-L1 interaction (PE-labeled human PD-L1-Ig binding to Jurkat cell line over-expressing human PD-1) (Homo sapiens, UniProt Q15116).
T1 construct: expressed in transfected cells; host or cells: Jurkat
T1 sequence (Q15116 25-288): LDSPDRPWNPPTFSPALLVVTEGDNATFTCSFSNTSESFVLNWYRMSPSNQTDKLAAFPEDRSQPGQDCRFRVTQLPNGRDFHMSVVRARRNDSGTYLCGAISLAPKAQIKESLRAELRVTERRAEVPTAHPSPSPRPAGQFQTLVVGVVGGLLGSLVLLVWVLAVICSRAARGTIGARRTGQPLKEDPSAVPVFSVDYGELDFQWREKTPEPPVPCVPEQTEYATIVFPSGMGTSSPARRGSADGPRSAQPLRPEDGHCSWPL
The assay is described as follows: Jurkat-PD-1 Cell Binding High-Content Screening Assay (CBA). It counts as cell-based. The settings on record: Jurkat cell line over-expressing human PD-1; PE-labeled PD-L1-Ig 20 nM final; read-out: Jurkat hPD1-PDL1 IC50. The procedure, abridged: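 First, compound is added to PD-1-expressing Jurkat cells in serum-containing DMEM and left 2 h at 37° C. Next, PE-conjugated PD-L1-Ig is introduced at 20 nM final concentration for 1 hour. Finally, cells are fixed in 4% paraformaldehyde with Hoechst 33342, washed and imaged.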
On to `CC(C)C[C@H]1NC(=O)[C@H](CCCN)NC(=O)[C@H](C(C)C)NC(=O)[C@H](Cc2ccc(-c3ccccc3)cc2)NC(=O)[C@H](C(C)C)NC(=O)[C@H](Cc2c[nH]c3ccccc23)NC(=O)[C@H](CC(=O)O)NC(=O)[C@H](Cc2c[nH]cn2)NC(=O)[C@H](CCCNC(=N)N)NC(=O)CSC[C@@H](C(=O)N[C@@H](CCN)C(=O)NCCCCCCCCCCC(=O)O)NC(=O)[C@@H]2CC(O)CN2C(=O)[C@H](C(C)C)NC(=O)[C@H](CC2CCCCC2)NC(=O)[C@H](CCN)NC1=O` (stereo partly drawn) [Compound 3275] ({CH2CO}-RHDWV[Bip]V[Orn][dL][Dab][Cha]V[X19]C[Dab][Aun]-OH; thioether N-14), for which the IC50 came to 411 nM.
Next, `CC(C)C[C@H]1NC(=O)[C@H](CCN)NC(=O)[C@H](C(C)C)NC(=O)[C@H](Cc2ccc(-c3ccccc3)cc2)NC(=O)[C@H](C(C)C)NC(=O)[C@H](Cc2c[nH]c3ccccc23)NC(=O)[C@H](CC(=O)O)NC(=O)[C@H](Cc2ccc(OCC(=O)O)cc2)NC(=O)[C@H](CCCCNC(=N)N)NC(=O)CSC[C@@H](C(=O)N[C@H](CC(N)=O)C(=O)NCCCCCCCCCCC(=O)O)NC(=O)[C@H](CCCN)NC(=O)[C@H](C(C)C)NC(=O)[C@H](CC2CCCCC2)NC(=O)[C@H](CCN)NC1=O` [Compound 3277] ({CH2CO}-[hArg]Y(Carboxymethyl)DWV[Bip]V[Dab][dL][Dab][Cha]V[Orn]C[dN][Aun]-OH; thioether N-14): 10.5 nM; `CC(C)C[C@H]1NC(=O)[C@H](CCCN)NC(=O)[C@H](C(C)C)NC(=O)[C@H](Cc2ccc(-c3ccccc3)cc2)NC(=O)[C@H](C(C)C)NC(=O)[C@H](Cc2c[nH]c3ccccc23)NC(=O)[C@H](CC(=O)O)NC(=O)[C@H](Cc2ccc(OCC(=O)O)cc2)NC(=O)[C@H](CCCCNC(=N)N)NC(=O)CSC[C@@H](C(=O)N[C@H](CC(N)=O)C(=O)NCCCCCCCCCCC(=O)O)NC(=O)[C@H](CCCN)NC(=O)[C@H](C(C)C)NC(=O)[C@H](CC2CCCCC2)NC(=O)[C@H](CCN)NC1=O` [Compound 3278] ({CH2CO}-[hArg]Y(Carboxymethyl)DWV[Bip]V[Orn][dL][Dab][Cha]V[Orn]C[dN][Aun]-OH; thioether N-14): 8.7 nM.
Next, `CC(C)[C@@H]1NC(=O)[C@H](CC2CCCCC2)NC(=O)[C@H](CCN)NC(=O)[C@@H](C)NC(=O)[C@H](CCN)NC(=O)[C@H](C(C)C)NC(=O)[C@H](Cc2ccc(-c3ccccc3)cc2)NC(=O)[C@H](C(C)C)NC(=O)[C@H](Cc2c[nH]c3ccccc23)NC(=O)[C@H](CC(=O)O)NC(=O)[C@H](Cc2ccc(OCC(=O)O)cc2)NC(=O)[C@H](CCCCNC(=N)N)NC(=O)CSC[C@@H](C(=O)N[C@@H](CCN)C(=O)NCCOCCOCC(=O)NCCCCCCCCCCC(=O)O)NC(=O)[C@H](CCCN)NC1=O` [Compound 3279] ({CH2CO}-[hArg]Y(Carboxymethyl)DWV[Bip]V[Dab][dA][Dab][Cha]V[Orn]C[Dab][AEEA][Aun]-OH; thioether N-14): 46.7 nM; `CC(C)C[C@H]1NC(=O)[C@H](CCN)NC(=O)[C@H](C(C)C)NC(=O)[C@H](Cc2ccc(-c3ccccc3)cc2)NC(=O)[C@H](C(C)C)NC(=O)[C@H](Cc2c[nH]c3ccccc23)NC(=O)[C@H](CC(=O)O)NC(=O)[C@H](Cc2ccc(OCC(=O)O)cc2)NC(=O)[C@H](Cc2ccsc2)NC(=O)CSC[C@@H](C(=O)NCCOCCOCC(=O)NCCCCCCCCCCC(=O)O)NC(=O)[C@H](C(C)O)NC(=O)[C@H](C(C)C)NC(=O)[C@H](CC2CCCCC2)NC(=O)[C@H](CCN)NC1=O` (stereo partly drawn) [Compound 3280] ({CH2CO}-[3Thi]Y(Carboxymethyl)DWV[Bip]V[Dab][dL][Dab][Cha]V[Thr(3ξ)]C[AEEA][Aun]-OH; thioether N-14): 42.2 nM.
For `CC(C)C[C@H]1NC(=O)[C@H](CCN)NC(=O)[C@H](C(C)C)NC(=O)[C@H](Cc2ccc(-c3ccccc3)cc2)NC(=O)[C@H](C(C)C)NC(=O)[C@H](Cc2c[nH]c3ccccc23)NC(=O)[C@H](CC(=O)O)NC(=O)[C@H](Cc2ccc(OCC(=O)O)cc2)NC(=O)[C@H](Cc2ccsc2)NC(=O)CSC[C@@H](C(=O)N[C@@H](CCCN)C(=O)NCCCCCCCCCCC(=O)O)NC(=O)[C@H](C(C)O)NC(=O)[C@H](C(C)C)NC(=O)[C@H](CC2CCCCC2)NC(=O)[C@H](CCN)NC1=O` (stereo partly drawn) [Compound 3281] ({CH2CO}-[3Thi]Y(Carboxymethyl)DWV[Bip]V[Dab][dL][Dab][Cha]V[Thr(3ξ)]C[Orn][Aun]-OH; thioether N-14) the value was 98.7 nM; for `CC(C)C[C@H]1NC(=O)[C@H](CCN)NC(=O)[C@H](C(C)C)NC(=O)[C@H](Cc2ccc(-c3ccccc3)cc2)NC(=O)[C@H](C(C)C)NC(=O)[C@H](Cc2c[nH]c3ccccc23)NC(=O)[C@H](CC(=O)O)NC(=O)[C@H](Cc2ccc(OCC(=O)O)cc2)NC(=O)[C@H](Cc2ccsc2)NC(=O)CSC[C@@H](C(=O)N[C@@H](CCN)C(=O)NCCCCCCCCCCC(=O)O)NC(=O)[C@H](C(C)O)NC(=O)[C@H](C(C)C)NC(=O)[C@H](CC2CCCCC2)NC(=O)[C@H](CCN)NC1=O` (stereo partly drawn) [Compound 3282] ({CH2CO}-[3Thi]Y(Carboxymethyl)DWV[Bip]V[Dab][dL][Dab][Cha]V[Thr(3ξ)]C[Dab][Aun]-OH; thioether N-14), 119 nM; for `CC(C)C[C@H]1NC(=O)[C@H](CCN)NC(=O)[C@H](C(C)C)NC(=O)[C@H](Cc2ccc(-c3ccccc3)cc2)NC(=O)[C@H](C(C)C)NC(=O)[C@H](Cc2c[nH]c3ccccc23)NC(=O)[C@H](CC(=O)O)NC(=O)[C@H](Cc2ccc(OCC(=O)O)cc2)NC(=O)[C@H](Cc2ccsc2)NC(=O)CSC[C@@H](C(=O)NCCOCCOCC(=O)N[C@@H](CCN)C(=O)NCCCCCCCCCCC(=O)O)NC(=O)[C@H](CCCNC(=N)N)NC(=O)[C@H](C(C)C)NC(=O)[C@H](CC2CCCCC2)NC(=O)[C@H](CCN)NC1=O` [Compound 3283] ({CH2CO}-[3Thi]Y(Carboxymethyl)DWV[Bip]V[Dab][dL][Dab][Cha]VRC[AEEA][Dab][Aun]-OH; thioether N-14), 13.8 nM.
As to `CC(C)C[C@H]1NC(=O)[C@H](CCN)NC(=O)[C@H](C(C)C)NC(=O)[C@H](Cc2ccc(-c3ccccc3)cc2)NC(=O)[C@H](C(C)C)NC(=O)[C@H](Cc2c[nH]c3ccccc23)NC(=O)[C@H](CC(=O)O)NC(=O)[C@H](Cc2ccc(OCC(=O)O)cc2)NC(=O)[C@H](Cc2ccsc2)NC(=O)CSC[C@@H](C(=O)NCCOCCOCC(=O)N[C@@H](CCN)C(=O)NCCCCCCCCCCC(=O)O)NC(=O)[C@H](CCCN)NC(=O)[C@H](C(C)C)NC(=O)[C@H](CC2CCCCC2)NC(=O)[C@H](CCN)NC1=O` [Compound 3284] ({CH2CO}-[3Thi]Y(Carboxymethyl)DWV[Bip]V[Dab][dL][Dab][Cha]V[Orn]C[AEEA][Dab][Aun]-OH; thioether N-14), the 50% inhibitory concentration (IC50) is 10.2 nM.
Next, `CCC(C)[C@@H]1NC(=O)[C@H](Cc2ccc(-c3ccccc3)cc2)NC(=O)[C@H](C(C)C)NC(=O)[C@H](Cc2c[nH]c3ccccc23)NC(=O)[C@H](CC(=O)O)NC(=O)[C@H](Cc2ccc(OCC(=O)O)cc2)NC(=O)[C@H](CCCNC(=N)N)NC(=O)CSC[C@@H](C(=O)N[C@H](CC(N)=O)C(=O)NCCCCCCCCCCC(=O)O)NC(=O)[C@H](CCCN)NC(=O)[C@H](C(C)C)NC(=O)[C@H](CC2CCCCC2)NC(=O)[C@H](CCN)NC(=O)[C@@H](CC(C)C)NC(=O)[C@H](CCN)NC1=O` (stereo partly drawn) [Compound 3285] ({CH2CO}-RY(Carboxymethyl)DWV[Bip][Ile(3ξ)][Dab][dL][Dab][Cha]V[Orn]C[dN][Aun]-OH; thioether N-14): 9.3 nM; `CC(C)C[C@H]1NC(=O)[C@H](CCN)NC(=O)[C@H](C(C)C)NC(=O)[C@H](Cc2ccc(-c3ccccc3)cc2)NC(=O)[C@H](C(C)C)NC(=O)[C@H](Cc2c[nH]c3ccccc23)NC(=O)[C@H](CC(=O)O)NC(=O)[C@H](Cc2ccc(OCC(=O)O)cc2)NC(=O)[C@H](Cc2ccsc2)NC(=O)CSC[C@@H](C(=O)N[C@H](CC(N)=O)C(=O)NCCCCCCCCCCC(=O)O)NC(=O)[C@H](CCCCN)NC(=O)[C@H](C(C)C)NC(=O)[C@H](CC2CCCCC2)NC(=O)[C@H](CCN)NC1=O` [Compound 3286] ({CH2CO}-[3Thi]Y(Carboxymethyl)DWV[Bip]V[Dab][dL][Dab][Cha]VKC[dN][Aun]-OH; thioether N-14): 8.3 nM.
Next, `CC(C)C[C@H]1NC(=O)[C@H](CCCN)NC(=O)[C@H](C(C)C)NC(=O)[C@H](Cc2ccc(-c3ccccc3)cc2)NC(=O)[C@H](C(C)C)NC(=O)[C@H](Cc2c[nH]c3ccccc23)NC(=O)[C@H](CC(=O)O)NC(=O)[C@H](Cc2ccc(OCC(=O)O)cc2)NC(=O)[C@H](CCCNC(=N)N)NC(=O)CSC[C@@H](C(=O)N[C@@H](CCN)C(=O)NCCCCCCCCCCC(=O)O)NC(=O)[C@H](CN)NC(=O)[C@H](C(C)C)NC(=O)[C@H](CC2CCCCC2)NC(=O)[C@H](CCN)NC1=O` [Compound 3287] ({CH2CO}-RY(Carboxymethyl)DWV[Bip]V[Orn][dL][Dab][Cha]V[Dap]C[Dab][Aun]-OH; thioether N-14): 10.8 nM.
For `CC(C)C[C@H]1NC(=O)[C@H](CCCN)NC(=O)[C@H](C(C)C)NC(=O)[C@H](Cc2ccc(-c3ccccc3)cc2)NC(=O)[C@H](C(C)C)NC(=O)[C@H](Cc2c[nH]c3ccccc23)NC(=O)[C@H](CC(=O)O)NC(=O)[C@H](Cc2ccc(OCC(=O)O)cc2)NC(=O)[C@H](CCCNC(=N)N)NC(=O)CSC[C@@H](C(=O)N[C@@H](CCN)C(=O)NCCCCCCCCCCC(=O)O)NC(=O)[C@H](CCN)NC(=O)[C@H](C(C)C)NC(=O)[C@H](CC2CCCCC2)NC(=O)[C@H](CCN)NC1=O` [Compound 3288] ({CH2CO}-RY(Carboxymethyl)DWV[Bip]V[Orn][dL][Dab][Cha]V[Dab]C[Dab][Aun]-OH; thioether N-14) the value was 13.7 nM.

As a reminder, the IC50 is the concentration that gives 50% inhibition.
